Test: gradient 5% acetonitrile 3 min, to 50% in 2 min, to 85% in 15 min, held 3 min, 100 µL/min
Conditions: column: Zorbax Extend-C18 2.1 x 50 mm; eluents: water / acetonitrile, 0.1% formic acid
Procedure, shortened: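 Pure standards were analyzed in mixtures of ~100 molecules using HPLC coupled to a quadrupole time-of-flight mass spectrometer, in both positive and negative ionization mode. Separation used a Zorbax Extend-C18 column (2.1 × 50 mm, 1.8 μm) at 100 μL/min, with water and acetonitrile each containing 0.1% formic acid. Dead and dwell volumes were 40 μL and 900 μL, and data were collected over 3 months. Retention time was read from computationally picked adduct peaks, each inspected manually.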

SMILES	RP-LC retention time
CCc1nc(-c2csc(S(=O)(=O)N3CCCC(C(=O)N(C)c4ccc(C)c(C)c4)C3)c2)no1 (centres undefined)	1140 s
CC(C)Cc1nc(C2CN(C(=O)c3cnccn3)CC23CCCC3)no1 (centres undefined)	618 s
O=C(CCC1CCN(c2cc(NC3CC3)ncn2)CC1)NCc1ccc(F)cc1Cl	689 s
O=C(Nc1ccc(CC(=O)N2CCOCC2)cc1)c1ccco1	594 s
Cc1ccc(C)c(S(=O)(=O)N2CCCC2c2nc(-c3ccc(Cl)cc3)no2)c1 (centres undefined)	1270 s
Cc1noc(-c2nn(C)c3c2CN(C(=O)COc2ccc(Cl)cc2)CC3)n1	791 s
CN(Cc1nc2ccccc2n1CCc1ccccc1)C(=O)c1ccco1	706 s
O=C(CSCc1nc2cccnc2n1C1CCCCC1)N1CCN(c2ccccn2)CC1	649 s
O=C(NC1CC1)C1CCCN(S(=O)(=O)c2c[nH]c(C(=O)N3CCCCCC3)c2)C1 (centres undefined)	702 s
O=C1CCC2(CCN1)CCN(S(=O)(=O)c1ccc(Cl)c(Cl)c1)CC2	839 s
O=C(NC1CCCCC1)N(Cc1ccccn1)Cc1ccco1	635 s
O=C1NCCCCCCN(C(=O)c2cnccn2)[C@H]2CCCC[C@@H]12	684 s
O=C([C@@H]1C[C@H](F)CN1S(=O)(=O)c1ccc(F)cc1F)N1CCCCC1	812 s
CC1CCC(NC(=O)c2cc3sccc3n2Cc2ccc(F)cc2)CC1 (centres undefined)	1260 s
CC1=C(c2ccc(C)cc2)S(=O)(=O)N=C1N1CCCN(C(=O)c2cccnc2)CC1	687 s
NC(=O)c1cc(-c2ccc(F)cc2)n[nH]1	645 s
CSc1ccccc1NC(=O)C(=O)NCC(C)(O)c1ccco1 (centres undefined)	995 s
COc1cc(OC)cc(-c2nc(-c3nnn(Cc4ccccc4)c3C)no2)c1	1060 s
O=C(O)c1cccc(-c2ccc(N3CCCCCC3)nc2)c1	627 s
CS(=O)(=O)N1CCN(CCNC(=O)NC(c2ccccc2)c2ccccc2)CC1	580 s
O=C(Cn1nc2n(c1=O)CCCC2)Nc1ccc(C(F)(F)F)cc1	716 s
CCC(C)NC(=O)N1CCc2c(c(-c3nc(Cc4ccccc4)no3)nn2C)C1 (centres undefined)	870 s
CN(C)C(=O)c1ccc2c(c1)N(CC(=O)N1CCN(c3ccccn3)CC1)C(=O)CS2	573 s
CN1CCN(CCNC(=O)c2ccc3nc(-c4ccc(Cl)cc4)cn3c2)CC1	579 s
CC(C)c1ccc(S(=O)(=O)N(C)CC2CCOCC2)cc1	1010 s
CCN(CCNS(=O)(=O)c1ccc2[nH]c(=O)ccc2c1)Cc1ccccc1	597 s

SMILES	RP-LC retention time
CN(C1CCc2nn(Cc3ccccc3)c(=O)n2CC1)S(C)(=O)=O (centres undefined)	666 s
Cc1ccc(-c2nc(CN(c3ccccc3)S(=O)(=O)c3cccs3)c(C)o2)cc1	1200 s
CCCc1noc(CN2N=C(C(=O)N3CCC(C)CC3)S(=O)(=O)c3ccccc32)n1	954 s
Cc1cc(C)n(Cc2nc(-c3ccc(NC(=O)C(C)C)cc3)oc2C)n1	816 s
COc1ccc(CC(=O)N2CCN(c3cc(C)n4c(C)nnc4n3)CC2)cc1OC	578 s
CCn1c(=O)oc2cc(-c3noc(-c4ccc(C)cc4)n3)ccc21	1060 s
Cc1ccc(S(=O)(=O)N2CCCC2c2nc(-c3ccc(Cl)cc3)no2)cc1F (centres undefined)	1230 s
Cc1ccc(NC(=O)C2CCCN(c3nnc(C)c4c(C)n(-c5ccccc5)nc34)C2)cc1C (centres undefined)	820 s
CC1=C(c2ccc(C)c(C)c2)S(=O)(=O)N=C1N1CCCN(C(=O)NC(C)C)CC1	787 s
CC(C)N(CC(=O)N1CCNCC1)C(=O)c1cccc(Br)c1	573 s
CCCOc1nc2ccccc2nc1N1CCCC(C(=O)NCc2cccc(C)c2)C1 (centres undefined)	1220 s
CCN1CCN(CCCNS(=O)(=O)c2cc(-c3nc(C)c(C)s3)sc2C)CC1	608 s
Cc1cccc(C(=O)N2CCC3(C2)C(=O)Nc2ccccc23)c1 (centres undefined)	734 s
Cc1cccc(CN2CCCn3nc(C(=O)NCc4cccs4)cc3C2=O)c1	874 s
CCNC(=O)c1c(-c2cccc(F)c2)noc1C	797 s
O=C(Nc1nc2ccccc2n1CCN1CCOCC1)c1cccc([N+](=O)[O-])c1	581 s
Cc1nc(N2CCCC2)cc(N2CCN(C(=O)c3ccc(Br)o3)CC2)n1	645 s
O=C(NCCCc1ccccc1)c1n[nH]c2c1CN(C(=O)C1CC1)CC2	789 s
COc1cccc(OC)c1OCC(O)CN1CCN(c2ccccc2)CC1 (centres undefined)	668 s
O=S(=O)(c1cccnc1)N1CCC(c2nnc(-c3ccc(F)cc3)o2)CC1	734 s
COc1ccc2nc(N3CC(C(=O)N4CCc5cc(OC)c(OC)cc5C4)C3)sc2c1	661 s
O=C(NC1CCCCC1)c1ccc2ncnc(N3CCCCC3)c2c1	658 s
Cc1ccc(C)c(NS(=O)(=O)c2cc3n(c2)CCN(C(C)C)C3=O)c1	794 s
CCC(C)NC(=O)c1n[nH]c2c1CCCC2 (centres undefined)	718 s
COCc1nc(C2CCN(C(=O)C3CC3)C2)no1 (centres undefined)	626 s
O=C(Nc1cccc(Cl)c1)c1cnn2c1CCCC2	814 s

Other lines, results leading:

RP-LC retention time	SMILES
602 s	Cc1ccnc(NC(=O)C2CC(=O)N(c3n[nH]c4cccc(F)c34)C2)c1 (centres undefined)
661 s	CCc1noc2nc(C)n(CC(=O)NCc3ccc(OC(C)C)cc3)c(=O)c12
912 s	COc1ccc(-c2cc(=O)c3cc(Br)ccc3o2)cc1OC
842 s	COc1cc(F)ccc1-c1ccnc2nc(C(C)C)nn12
785 s	COc1cccc(Cn2c(=O)c3ccnn3c3ccc(C(=O)O)cc32)c1
1150 s	O=C(Nc1ccc2c(c1)OCCO2)c1c(O)c2cccnc2n(-c2ccccc2)c1=O
883 s	Cc1nc(Nc2ccc(F)cn2)sc1C(=O)NCCCc1ccccc1
961 s	Cc1ccccc1NC(=O)Cn1cnc2c(sc3nc(-c4ccccc4)ccc32)c1=O
745 s	O=C(NCC(O)c1cccc2ccccc12)Nc1c(F)cccc1F (centres undefined)
1160 s	COc1ccc(NC(=O)Cc2c(C)nn(-c3nc(-c4ccc(F)cc4)cs3)c2C)c(OC)c1
1000 s	Cc1ccc(-c2cc3c4nnc(SCC(=O)Nc5cccc(C)c5C)n4ccn3n2)cc1C
796 s	Cc1cc2nn(CC(=O)Nc3ccccc3C)c(=O)n2c(-c2ccc(F)cc2)n1
735 s	O=C(c1ccc(F)c(Cl)c1)N1CCC(n2c(-c3ccoc3)nc3cccnc32)C1 (centres undefined)
689 s	COc1ccc(-n2c(CN3CCN(C(=O)Nc4cc(F)ccc4F)CC3)nc3cccnc32)cc1
880 s	CCOc1ccc(NC(=O)C2CCN(S(=O)(=O)c3ccc4c(c3)NC(=O)C(C)O4)CC2)cc1 (centres undefined)
735 s	CCOc1ccc(NC(=O)Cn2c(-c3cnccn3)nc(C)c(C)c2=O)cc1
715 s	COC(=O)c1ncn2c1C(=O)N(c1ccccc1C)C(C)(C(=O)NCc1ccccc1)C2 (centres undefined)
705 s	CCC(C(=O)N1CCN(c2ccccn2)CC1)n1nc(C)c2sc3ccccc3c2c1=O (centres undefined)
965 s	O=C(CSc1cc(-n2cccn2)ncn1)Nc1ccccc1Br

RP-LC retention time	SMILES
800 s	CN(c1ccccc1)c1nc(=O)n(CC(=O)Nc2ccc3c(c2)OCO3)c2ccccc12
989 s	CCOC(=O)c1nc(Nc2ccc(C(=O)OC(C)C)cc2)c2ccccc2n1
662 s	CN(CCc1ccccn1)c1ccc2c(c1)C(=O)c1ccccc1-2
834 s	Cc1ccc(-n2nc(N3CCN(C(=O)Nc4cc(F)ccc4F)CC3)ccc2=O)cc1
858 s	CCOc1cccc(-c2noc(Cn3ccn(-c4ccccc4)c(=O)c3=O)n2)c1
603 s	CC1(C)CNc2cc(NC(=O)c3cccnc3NCc3ccncc3)ccc21
994 s	Cc1cc(NC(=O)c2cnc(-c3ccccc3)nc2-c2ccncc2)ccc1Br
910 s	CCOc1ccc(-c2noc(Cn3c(=O)n(-c4ccccc4)c(=O)c4sccc43)n2)cc1OC
737 s	O=C(O)c1cccc(Nc2c(-c3cccc(Cl)c3)nc3cnccn23)c1
1210 s	CCOc1cccc(-c2noc(-c3nnn4c3COC(c3cccc(OC)c3)C4)n2)c1 (centres undefined)
790 s	CCOc1cccc2c1OC1(C)CC2NC(=O)N1c1cccc(C(=O)NCc2cccs2)c1 (centres undefined)
973 s	CCn1nc(-c2ccccc2)c(-c2ccccc2)c(C(=O)OC)c1=O
718 s	Cc1ccccc1-c1cc(C(N)=O)c2ccccc2n1
673 s	CNC(=O)c1ccc(-c2nc3cc(NS(=O)(=O)c4ccc(Br)cc4)ccc3n2C)cc1
688 s	CCCC(NC(=O)c1cc(OC)c(OC)c(OC)c1)C(=O)Nc1nc2ccccc2[nH]1 (centres undefined)
942 s	COc1ccc(C)cc1NC(=O)CCc1cccc2[nH]ccc12
1300 s	COc1ccc(-n2c(=O)c(C(=O)Nc3cc(F)cc(F)c3)c(O)c3cccnc32)cc1
918 s	CCN1C(=O)c2cccnc2Sc2cc(NC(=O)c3ccc(C)cc3C)ccc21

— the METLIN SMRT retention time set (Domingo-Almenara et al. 2019)
